# Reference: patent US4822606A, “Immunosuppressive synthetic peptides and analogs thereof based on retroviral envelope sequences” (Duke University, priority 1986, dated 1989)
# Ends that are not written are not given here.
# Legend:
# human lymphocytes = test: Binding of [^125 I]-CKS-17-BSA to cultured human lymphocytes; details: >1000 fold excess of unlabeled BSA conjugate
# Description: Human mononuclear cells were stimulated for 3 days with PHA, washed free of lectin, cultured for 10 days with 10% of a human IL-2 preparation (electronucleonics) washed and resuspended to 5×10^6 cells/ml in phosphate-buffered-saline, pH 7.2 (PBS) containing 0.1% BSA. […] Binding was terminated and unbounded [^125 I]-CKS-17-BSA removed by rapid (30 sec.) centrifugation of the cells through oil. The cell associated radioactivity was measured using a gamma radiation counter.
# [1] = tested on: Balb/c and NIH/Swiss splenic lymphocytes; test: Murine two-way mixed leukocyte culture (MLC); format: cell-based; details: coupled to BSA; for average inhibition of murine MLC response (mean±SEM): 3 day MLC, three experiments
# Description: Fifty μl RPMI containing 1×10^5 Balb/c splenic lymphocytes and 50 μl containing 1×10^5 NIH/Swiss splenic lymphocytes were added to each well of a 96 well tissue culture plate. An additional 50 μl of RPMI containing peptide or no additives was added to each well and the cultures incubated for 3 to 5 days at 37° C in humidified 5% CO^2 Cultures were pulsed for 4 hr with 0.5 μCi of ^3 H-thymidine in 50 μl of RPMI before harvesting onto glass fiber filters.
# murine CTLL-2 cells = test: Murine cytotoxic T lymphocyte (CTLL-2) IL-2 dependent proliferation assay; format: cell-based; details: for average inhibition of CTLL-2 cell proliferation: 24 experiments; for ^3H-TdR incorporation, CPM ± SD of quadruplicate samples: 24 h;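 on all read-outs here: CTLL-2 cells, 4 x 10^3 per well in 96-well plates with RPMI plus 6% FBS, proliferation read as cell-bound radioactivity counted by liquid scintillation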
# Description: Fifty μ1 of RPMI (6% FBS, 0% IL-2) containing 4 x 10^3 CTLL-2 cells was added to each well of a 96 well tissue culture plate (Falcon, Oxnard, CA). To each well was then added 50 μl of RPMI 1640 containing 3% human IL-2 50 μl of either RPMI or RPMI containing synthetic peptides. Cultures were then incubated for 24 hours at 37° C. in humidified 5% CO^2 Fifty μl of RPMI containing 1 μCi of ^3 H-thymidine (6.7 Ci/mmole; New England Nuclear, Boston, MA) was added to each well for the final 4 hours of cultures. Cells were collected by filtration onto glass fiber filters and incorporated radioactivity determined by liquid scintillation spectrophotometry.
# Immunization of rabbits = format: in vivo, rabbit
# NIH/3T3 fibroblasts = test: Fibroblast proliferation, NIH/3T3; format: cell-based; details: 2 or 3 days, dilutions 1:20, 1:40, 1:80
# Description: (§1) CKS-17 was added at concentrations of 1:20, 1:40 and 1:80 to monolayers of Balb/3T3 or NIH/3T3 fibroblasts (ca. 1/3 confluent) in 96 well tissue culture plates. The cells were grown for an addition 2-3 days and pulsed with 1.0 μCi ^3 H-thymidine./well for the final 24 hours. The culture media was removed and the cells washed once before disruption with 0.5 ml of 0.5 N NaOH. The radiolabeled nucleic acids were then harvested onto glass fibe filters as described.
# [2] = tested on: lymphocytes from two non-related individuals; test: Human two-way mixed leukocyte culture (MLC); format: cell-based; details: four experiments, final 24 h of 6 day culture, coupled to BSA
# Description: Fifty μl of RPMI containing 1×10^5 lymphocytes from each of two non-related individuals was added to each well of a 96 well tissue culture plate. An additional 50 μl of RPMI was added and cultures were incubated at 37° C. in humidified 5% CO2 for 5 days. Fifty μl of RPMI containing either peptide or no addition was added for an additional 24 hr. During the final 4 hr of incubation each well was incubated with 25 μl of RPMI containing 0.5 μCi of ^3 H-thymidine and incorporated radionucleotide determined as above.
# [3] = tested on: T4^+ and T8^+ lymphocytes, B cells, NK cells and phagocytes; test: Preliminary double-labeling studies; format: binding
# human monocytes = test: Monocyte superoxide anion (O2^-) release; format: cell-based; details: WGA stimulated, peptide coupled to BSA, mean ± SE
# Description: Monocytes were aliquoted into 12×75 mm polypropylene tubes (Falcon, Oxnard, CA) and incubated at 37° C. with test materials for twenty minutes. Cytochalasin E was then added to give a final concentration of 5 μg/ml. Ten minutes later 1.5 mg/ml cytochrome C was added followed immediately by wheat germ agglutinin (WGA) to a final concentration of 30 μg/ml (1). Supernatants were removed after 5 min. for determination of O2^- dismutase-inhibitable reduction of cytochrome C (2).
# [4] = tested on: human lymphocytes stimulated with Con A; test: Human lymphocyte proliferative response to Con A; format: cell-based; details: coupled to BSA
# Description: One hundred μl of RPMI containing 2×10^5 lymphocytes was added to each well of a 96 well tissue culture plate. […] The cultures were incubated for 72 hr at 37° C. in 5% humidified CO2, pulsed with ^3 Hthymidine (0.,5 μCi/well, 4h.) and the incorporated radioactivity determined as described above. The concentration of OKT3 antibody used was previously determined to give 75-100% of a maximal response.
# [5] = tested on: human lymphocytes stimulated with Con A; test: Human lymphocyte proliferative response to Con A; format: cell-based; details: addition 24 hr. after Con A; coupled to BSA
# Balb/3T3 fibroblasts = test: Fibroblast proliferation, Balb/3T3; format: cell-based; details: 2 or 3 days, dilutions 1:20, 1:40, 1:80
# Description: as §1
# [6] = Expt. 1, dilution 1:40, coupled to BSA
# [7] = Expt. 1, dilution 1:80, coupled to BSA
# [8] = Expt. 2, dilution 1:40, coupled to BSA
# [9] = Expt. 2, dilution 1:80, coupled to BSA
sequence,measurement,setting,value
LQNRRGLDLLFLKEGGL [CKS-17],inhibition of [^125 I]-CKS-17-BSA binding by excess unlabelled material,human lymphocytes,binding could be inhibited
same,average inhibition of murine MLC response (mean±SEM),[1]; dilution 1:20,94±2%
same,average inhibition of murine MLC response (mean±SEM),[1]; dilution 1:30,74±4%
same,average inhibition of murine MLC response (mean±SEM),[1]; dilution 1:80,48±9%
same,effect on five-day murine MLC reactions,[1]; five-day MLC,blocked
same,average inhibition of CTLL-2 cell proliferation,"murine CTLL-2 cells; dilution 1:20, coupled to BSA",49.6%
same,average inhibition of CTLL-2 cell proliferation,"murine CTLL-2 cells; dilution 1:40, coupled to BSA",22.0%
same,average inhibition of CTLL-2 cell proliferation,"murine CTLL-2 cells; dilution 1:80, coupled to BSA",9.4%
same,"short term toxic effect, trypan blue dye exclusion","murine CTLL-2 cells; CTLL-2 cells, coupled to BSA",not due to either a short term toxic effect
same,% inhibition of CTLL-2 proliferation,"murine CTLL-2 cells; Expt. 1, dilution 1:20 (ca. 7.3 μM), coupled to BSA",76%
same,"^3H-TdR incorporation, CPM ± SD of quadruplicate samples","murine CTLL-2 cells; Expt. 1, dilution 1:20, coupled to BSA","15,255 ± 277 CPM"
same,% inhibition of CTLL-2 proliferation,murine CTLL-2 cells; [6],34%
same,"^3H-TdR incorporation, CPM ± SD of quadruplicate samples",murine CTLL-2 cells; [6],"42,827 ± 1386 CPM"
same,% inhibition of CTLL-2 proliferation,murine CTLL-2 cells; [7],7%
same,"^3H-TdR incorporation, CPM ± SD of quadruplicate samples",murine CTLL-2 cells; [7],"60,005 ± 1425 CPM"
same,% inhibition of CTLL-2 proliferation,"murine CTLL-2 cells; Expt. 2, dilution 1:20 (ca. 7.3 μM), coupled to BSA",64%
same,"^3H-TdR incorporation, CPM ± SD of quadruplicate samples","murine CTLL-2 cells; Expt. 2, dilution 1:20, coupled to BSA","10,950 ± 2171 CPM"
same,% inhibition of CTLL-2 proliferation,murine CTLL-2 cells; [8],24%
same,"^3H-TdR incorporation, CPM ± SD of quadruplicate samples",murine CTLL-2 cells; [8],"23,128 ± 3288 CPM"
same,% inhibition of CTLL-2 proliferation,murine CTLL-2 cells; [9],1%
same,"^3H-TdR incorporation, CPM ± SD of quadruplicate samples",murine CTLL-2 cells; [9],"29,980 ± 3490 CPM"
same,incubation required for maximal inhibition of CTLL-2 cell proliferation,"murine CTLL-2 cells; ca. 15 μM, coupled to BSA",16 h
same,reversal of inhibition by increasing the concentration of IL-2 twenty-fold,murine CTLL-2 cells; coupled to BSA,could not be reversed
same,effect upon the CTLL-2 cells,murine CTLL-2 cells; free (unconjugated) peptide,no effect
same,antibodies elicited by immunization of rabbits,Immunization of rabbits,elicited antibodies which react with free peptide and the native viral protein
same,effect upon ^3H-thymidine incorporation,NIH/3T3 fibroblasts,no effect
same,average inhibition of human two-way MLC (mean±SEM),[2]; dilution 1:20,92±2
same,average inhibition of human two-way MLC (mean±SEM),[2]; dilution 1:40,64±11
same,average inhibition of human two-way MLC (mean±SEM),[2]; dilution 1:80,18±3
same,cell types bound,[3],"binds to T4^+ and T8^+ lymphocytes, B cells, NK cells and phagocytes"
same,O2^- Release,human monocytes; dilution 1:20,6.0 ± 0.5 nmoles/5 minues/1.2 × 10^6 mon
same,O2^- Release,human monocytes; dilution 1:40,8.3 ± 0.5 nmoles/5 minues/1.2 × 10^6 mon
same,% inhibition of Con A stimulated proliferation,"[4]; Expt. 1, dilution 1:10",88%
same,"^3H-TdR incorporation, CPM ± SD of quadruplicate samples","[4]; Expt. 1, dilution 1:10","11,170 ± 3572 CPM"
same,% inhibition of Con A stimulated proliferation,"[4]; Expt. 1, dilution 1:20",58%
same,"^3H-TdR incorporation, CPM ± SD of quadruplicate samples","[4]; Expt. 1, dilution 1:20","38,132 ± 11,989 CPM"
same,% inhibition of Con A stimulated proliferation,"[4]; Expt. 1, dilution 1:40",58%
same,"^3H-TdR incorporation, CPM ± SD of quadruplicate samples","[4]; Expt. 1, dilution 1:40","38,085 ± 10,678 CPM"
same,% inhibition of Con A stimulated proliferation,"[4]; Expt. 1, dilution 1:80",48%
same,"^3H-TdR incorporation, CPM ± SD of quadruplicate samples","[4]; Expt. 1, dilution 1:80","46,815 ± 601 CPM"
same,% inhibition of Con A stimulated proliferation,"[4]; Expt. 2, dilution 1:10",66%
same,"^3H-TdR incorporation, CPM ± SD of quadruplicate samples","[4]; Expt. 2, dilution 1:10","34,601 ± 3914 CPM"
same,% inhibition of Con A stimulated proliferation,"[4]; Expt. 2, dilution 1:20",38%
same,"^3H-TdR incorporation, CPM ± SD of quadruplicate samples","[4]; Expt. 2, dilution 1:20","62,445 ± 3602 CPM"
same,% inhibition of Con A stimulated proliferation,"[4]; Expt. 2, dilution 1:40",17%
same,"^3H-TdR incorporation, CPM ± SD of quadruplicate samples","[4]; Expt. 2, dilution 1:40","83,154 ± 4422 CPM"
same,% inhibition of Con A stimulated proliferation,"[4]; Expt. 2, dilution 1:80",5%
same,"^3H-TdR incorporation, CPM ± SD of quadruplicate samples","[4]; Expt. 2, dilution 1:80","95,395 ± 45 CPM"
same,incorporation of ^3H-thymidine blocked,[4]; text: 1:20 dilution (ca. 7.5μM),up to 88%
same,inhibition when peptide is added 24 hr. after the mitogen,[5],comparable levels of inhibition
same,effect upon ^3H-thymidine incorporation,Balb/3T3 fibroblasts,no effect
